In US20260286322A1, “PROTEIN TYROSINE P[…] DOMAIN PEPTIDE DIMER FOR NERVOUS SYSTEM REPAIR” (NervGen Pharma Corp., priority 2023, published 2026):

Experiments:
[1] = tested on: rat model of thoracic traumatic Spinal Cord Injury (SCI); assay: Basso, Beattie and Bresnahan (BBB) open-field locomotor rating scale in SCI rats; format: in vivo
Source text: The goal of this study is to test the efficacy of a novel peptide dimer (Intracellular Sigma blocking peptide (ISP) dimer according to the present disclosure on behavioral changes in a rat model of thoracic traumatic Spinal Cord Injury (SCI).
Adult, female Lewis rats (~160 g on arrival) from Envigo were used as the subjects receiving the treatment in the study. The rats were assigned unique identification numbers (PGI ID and tail marks) and housed in ventilated cages. All rats were examined, handled, and weighed prior to initiation of the study to assure adequate health and suitability. During the course of the study, 12/12 light/dark cycles were maintained. The room temperature was maintained between […] and 23° C. with a relative humidity maintained around 50%. Chow and water were provided adlibitum for the duration of the study. The rats were randomly assigned across treatment groups. Body weights were taken twice a week during the study.
Lyophilized Compound 8 was dissolved in saline and injected s.c. at a volume of 500 μl to animal once daily from day 1-day 49 post spinal cord injury.
The dose concentration was 0.8 mg/ml, corresponding to 400 μg/rat. After reconstitutions, the solution was aliquoted and kept at −20° C. until dosing.
12-13 rats were used in each of the following two groups: • 1. Control group: SCI+Saline • 2. Testing group: SCI+Compound 8 in Saline.
Spinal cord injury (SCI) was introduced to the rats by surgery using the Infinite Horizon (IH) Impactor (200 kDyn force) described by Scheff et al. 2003. The surgery was performed with aseptic procedures in a designated area under deep anesthesia. Rats were anesthetized with isoflurane (4% for induction, 2% for maintenance), and O2 (300 cm^3/min) mixture. Hair was removed from the surgical site with clippers and the skin wase scrubbed with an antiseptic detergent. To maintain body temperature the animals were placed upon a homoeothermic blanket system. The T8 Vertebra of the rat was located externally, and an incision was made exposing the vertebral column from T6-T11. A laminectomy was performed using a surgical microscope to expose the dorsal spinal cord at the thoracic (T8) vertebral level. The vertebral column was stabilized by clamping the nearest rostral and caudal vertebral processes and the injury was produced using the IH impactor device at a 200 kDyn force. After each lesion the IH graphs and impact data were reviewed and recorded, rats presenting an impact force more than 10% higher or lower than expected and/or any abnormality on the force/displacement impact graphs were excluded from the study. Additionally, animals scoring more than 1 points in the Basso, Beattie and Bresnahan (BBB) score scale at 1 days after SCI were excluded for the study as well.
Locomotion changes were assessed using an open-field locomotor test (the Ohio State BBB Locomotor Rating Scale developed by Basso, et al. 1995). During each test, rats were observed moving around an empty wading pool for 4 minutes. Movements of joints in the hind limbs, weight support, and coordination between limbs were scored according to the BBB scale. This scale tracks the progressive recovery of hind-limb function following thoracic SCI. The scale can be divided into three parts reflecting the stages of recovery. […] BBB was assessed on days 1, 4 and 7 post injury and then weekly until completion of the study.
The BBB score scale obtained at day 1 after SCI was used to keep injury consistency. […] At Day 1 after SCI, only animals scoring either 0 (no observable hind-limb movement) or 1 (slight movement of one or two hind-limbs joins) in the BBB scale were enrolled in the study and allocated into treatment groups. The treatments groups were balanced using the BBB score obtained at day 1 after SCI.
Data was analyzed by analysis of variance (ANOVA) followed by post-hoc comparisons where appropriate. An effect was considered significant if p<0.05. […]

SCI rats = assay: Percentage of SCI rats reaching predefined BBB and/or bladder score thresholds at end of study; format: in vivo, rat
Source text: In this study, the effects of Compound 8 in improving the recovery of open field locomotor performance and bladder function in the SCI rats were further evaluated in comparison with Compound 4 by assessing the BBB scores and bladder scores according to the methods described in Example 3.
In this assessment, 12-13 rats were included in each of the following groups (1) Control group 1: SCI+saline alone; (2) Control group 2: SCI+Compound 4 in saline; (3) Testing group: SCI+Compound 8. The treatment was started on day 1 post-injury and continued through (last dose administered on) day 49 post-injury. The post-treatment observation period commenced on day 50 post-injury and continued until the end of study on day 84 post-injury.
At the end of the study, the performance of Compound 8 was evaluated in comparison with Compound 4 and saline alone by calculating the percentages of animals achieving predefined thresholds of functional improvement in the following categories: (i) Simultaneous improvement in BBB and bladder scores, (ii) Improvement in the locomotor function (BBB score) alone but not the in the bladder score, (iii) Improvement in the bladder score alone but not in the BBB score. FIG. 16 depicts the percentage of rats in each of these three categories, as annotated on the X-axis. An additional group (annotated as “Combined”) represents the combined percentage of rats achieving improvement in any of the first three categories for each treatment cohort (saline alone, Compound 4, and Compound 8). […]

[2] = week 7 post-SCI, 13 rats in group

TAT-Cys-rodent PTPRS wedge domain homodimer [Compound 8]
locomotor performance measured with weekly average BBB scores vs saline alone ([1]; RM ANOVA, Tukey, p<0.0001 for each compound): significant improvement | improving the BBB scores, compared with Compound 4 ([1]; RM ANOVA, Tukey, p=0.0017): more efficacious | recovery of movements of joints in the hind limbs, weight support, and coordination between limbs ([1]; SCI rats, vs saline): promotes the recovery | share of rats achieving BBB scores of 10 or above ([1]; after 70 days post SCI, group (3)): More than half | number of rats having BBB scores of 6 to 7 ([1]; day 7 post-SCI, 13 rats in group, 400 μg/rat s.c. once daily): 6 rats | percentage of rats that achieved a BBB score of 11 ([1]; day 77 post-SCI): more than 20% | percentage of rats that achieved a BBB score of 11 ([1]; day 84 post-SCI): about 50% | maximum BBB score in the cohort ([1]; end of study): 11 | number of rats with a BBB score of 10 [1, 2]: 6 rats | number of rats with a BBB score of 11 [1, 2]: 2 rats | rats with BBB scores of about 10 or 11 ([1]; week 12 post-SCI): 8 out of 13 | percentage of rats reaching BBB score of 11 alone (SCI rats; end of study): about 8% | percentage of rats with BBB score of 11 and bladder score of 2 or less simultaneously (SCI rats; end of study): about 40% | percentage of rats with BBB score of at least 10 and bladder score of 2 or less simultaneously (SCI rats; end of study (day 84)): ~50% | percentage of rats with improvement in the BBB score only (at least 10, no bladder score improvement) (SCI rats; end of study (day 84)): about 15% | percentage of rats with improvement in bladder-only scores (2 or less, no BBB improvement) (SCI rats; end of study (day 84), BBB threshold 10): about 8% | combined rate of functional improvement (simultaneous, BBB only and bladder only combined) (SCI rats; end of study (day 84), thresholds BBB at least 10, bladder 2 or less): about 70% | combined rate of functional improvement (BBB 11 only, bladder 2 or lower only, and both) (SCI rats; end of study, thresholds BBB 11, bladder 2 or lower): about 60%
